Drawing on patent US4698352A, “4-oxo-1,4-dihydronicotinic acid derivatives, salts thereof, and antibacterial agents containing the same” (Toyama Chemical Co., Ltd., priority 1982, dated 1987), this text covers MIC for four compounds.

Values after ≈ are worked out from the molar mass of the structure shown. Like-named read-outs stand apart in the source and are kept apart here.

Assay in all cases: Antibacterial activity (MIC), agar dilution
What all share (type): cell-based
(In general: In agar dilution, organisms are placed on agar that contains the substance at set levels.)

Test [1] has as its system Ps. aeruginosa S-68. The note with it: Pseudomonas aeruginosa. An excerpt: (§1) The amount of bacteria inoculated was 10^4 cells per plate (10^6 cells per ml).
For test [2], the system named is Kl. pneumoniae Y-50. The note with it: Klebsiella pneumoniae, Y50, 20 h, 10^6 cells per ml, 37° C., read-out: MIC.
Description: as §1

Test [3] deals with E. coli TK-111. The note with it: Escherichia coli, TK111, 20 h, E. coli TK-111; 10^6 cells per ml; 37° C., 20 hours; read-out: MIC.
Description: as §1

For test [4], the system named is Pro. vulgaris GN3027. The note with it: Proteus vulgaris, GN3027, 20 h, Pro. vulgaris GN3027; 10^6 cells per ml; 37° C., 20 hours; read-out: MIC.
Description: as §1

Test [5] relates to Kl. pneumoniae Y-41. The note with it: Klebsiella pneumoniae, Y41, 10^6 cells per ml, 37° C., 20 hours, read-out: MIC.
Description: as §1

In test [6] the test system is E. coli NIHJ JC-2. The note with it: Escherichia coli, NIHJJC2, 20 h, E. coli NIHJ JC-2; 10^6 cells per ml; 37° C., 20 hours; read-out: MIC.
Description: as §1

In test [7] the test system is St. aureus FDA209P. The note with it: Staphylococcus aureus, FDA209P, 20 h.
Description: as §1

Test [8] relates to Pro. morganii T-216. The note with it: Morganella morganii, 37° C.
Description: as §1

Test [9] concerns Ent. cloacae IID977. The note with it: Enterobacter cloacae, IID977, 20 h.
Description: as §1

Test [10] has as its system Aci. antitratus A-6. The note with it: 20 h, Aci. antitratus A-6; 10^6 cells per ml; 37° C., 20 hours; read-out: MIC.
Description: as §1

In test [11] the test system is Ps. aeruginosa IFO3445. The note with it: Pseudomonas aeruginosa.
Description: as §1

The test system of test [12] is Pro. mirabilis T-111. The note with it: Proteus mirabilis, 37° C.
Description: as §1

Test [13] deals with Pro. vulgaris GN76**. The note with it: Proteus vulgaris, 20 h; Pro. vulgaris GN76, cephalospolinase-producing; 10^6 cells per ml; read-out: MIC.
Description: as §1
(§2) ** Cephalospolinase-producing bacteria

Test [14] deals with E. coli GN5482**. The note with it: Escherichia coli, 20 h; E. coli GN5482, cephalospolinase-producing; 10^6 cells per ml; read-out: MIC.
Description: as §1, §2

Test [15] has as its system Ps. aeruginosa GN918**. The note with it: Pseudomonas aeruginosa, 20 h; Ps. aeruginosa GN918, cephalospolinase-producing; 10^6 cells per ml; read-out: MIC.
Description: as §1, §2

The test system of test [16] is St. aureus F-137*. The note with it: Staphylococcus aureus, 20 h.
Description: as §1
(§3) * Penicillinase-producing bacteria

In test [17] the test system is E. coli TK-3*. The note with it: Escherichia coli, 20 h, E. coli TK-3, penicillinase-producing; 10^6 cells per ml; read-out: MIC.
Description: as §1, §3

Test [18] has as its system Kl. pneumoniae Y-4*. The note with it: Klebsiella pneumoniae, 20 h, Kl. pneumoniae Y-4, penicillinase-producing; 10^6 cells per ml; read-out: MIC.
Description: as §1, §3

The test system of test [19] is Ps. aeruginosa GN3379*. The note with it: Pseudomonas aeruginosa, Ps. aeruginosa GN3379, penicillinase-producing, 10^6 cells per ml.
Description: as §1, §3

The mark [20] stands for this setting: St. aureus FDA209P, 10^6 cells per ml, 37° C., 20 hours, read-out: MIC.
Setting [21] is: T216, 10^6 cells per ml, 20 hours, read-out: MIC.
Where [22] appears, read: St. aureus F-137, penicillinase-producing, 10^6 cells per ml, read-out: MIC.
Where [23] appears, read: Ent. cloacae IID977, 10^6 cells per ml, 37° C., 20 hours, read-out: MIC.
Where [24] appears, read: Ps. aeruginosa IFO3445, 10^6 cells per ml, 37° C., 20 hours, read-out: MIC.
The mark [25] stands for this setting: T111, 10^6 cells per ml, 20 hours, read-out: MIC.

Usually MIC stands for the smallest concentration in the dilution series that meets the test's criterion for growth inhibition. Consider `CC(=O)Oc1ccc(-n2cc(C(=O)O)c(=O)cc2-c2ccc(N(C)C)cc2)cc1`, for which the MIC in test [1] (S68, 20 h) is 3.13 µg/mL (≈ 7.98 µM); in test [2] it was 0.39 µg/mL (≈ 0.994 µM); in test [3], not above 0.05 µg/mL; in [4], 0.1 µg/mL (≈ 0.255 µM); in [5], 1.56 µg/mL (≈ 3.98 µM); in test [6], 0.2 µg/mL (≈ 0.51 µM). The MIC in test [7] (setting [20]) is 0.1 µg/mL (≈ 0.255 µM); in test [8] (setting [21]), 0.78 µg/mL (≈ 1.99 µM); in [9], 1.56 µg/mL (≈ 3.98 µM); in test [10] it was 0.2 µg/mL (≈ 0.51 µM); in test [11] (IFO3445, 20 h), 3.13 µg/mL (≈ 7.98 µM); in test [12] (T111, 20 h, 10^6 cells per ml) it was 3.13 µg/mL (≈ 7.98 µM). The MIC in [13] is 0.39 µg/mL (≈ 0.994 µM); in test [14] it was not above 0.05 µg/mL; in test [15], 0.78 µg/mL (≈ 1.99 µM); in test [16] (setting [22]), 0.1 µg/mL (≈ 0.255 µM); in [17] it was 0.39 µg/mL (≈ 0.994 µM); in test [18] it was 3.13 µg/mL (≈ 7.98 µM). Besides, the minimal inhibitory concentration (MIC) in [19] (GN3379, 20 h) came to 3.13 µg/mL (≈ 7.98 µM).
For `O=C(O)c1cn(-c2ccc(O)cc2)c(-c2ccc(-c3ccccc3)cc2)cc1=O`, the MIC came to 12.5 µg/mL (≈ 32.6 µM) in test [1] (S68, 20 h); 0.39 µg/mL (≈ 1.02 µM) in [2]; 0.1 µg/mL (≈ 0.261 µM) in test [3]; 0.2 µg/mL (≈ 0.522 µM) in test [4]; 12.5 µg/mL (≈ 32.6 µM) in [5]; 0.39 µg/mL (≈ 1.02 µM) in test [6]. Further, the minimum inhibitory concentration (MIC) in test [7] (setting [20]) was not above 0.05 µg/mL; in [8] (setting [21]) it was 1.56 µg/mL (≈ 4.07 µM); in test [9] (setting [23]) it was 3.13 µg/mL (≈ 8.16 µM); in test [10], 0.39 µg/mL (≈ 1.02 µM); in test [11] (setting [24]) it was 25 µg/mL (≈ 65.2 µM); in [12] (setting [25]), 3.13 µg/mL (≈ 8.16 µM). Also, the minimal inhibitory concentration (MIC) in test [13] was 0.78 µg/mL (≈ 2.03 µM); in [14] it was not above 0.05 µg/mL; in [15], 1.56 µg/mL (≈ 4.07 µM); in test [16] (setting [22]), not above 0.05 µg/mL; in test [17], 0.78 µg/mL (≈ 2.03 µM); in [18] it was 12.5 µg/mL (≈ 32.6 µM). In addition, in [19] (20 h, read-out: MIC), the MIC was 100 µg/mL (≈ 261 µM).
`Cc1ccc(-c2cc(=O)c(C(=O)O)cn2-c2ccc(O)cc2)s1`: the MIC in test [1] (S68, Ps. aeruginosa S-68, 10^6 cells per ml, 37° C., 20 hours, read-out: MIC) was 3.13 µg/mL (≈ 9.56 µM); in test [2], 0.2 µg/mL (≈ 0.611 µM); in test [3], not above 0.05 µg/mL; in test [4] it was not above 0.05 µg/mL; in [5] it was 0.78 µg/mL (≈ 2.38 µM); in test [6], 0.2 µg/mL (≈ 0.611 µM). Further, the MIC in [7] (setting [20]) worked out at 0.2 µg/mL (≈ 0.611 µM); in test [8] (setting [21]) it was 0.39 µg/mL (≈ 1.19 µM); in [9] (setting [23]), 0.78 µg/mL (≈ 2.38 µM); in test [10], 0.39 µg/mL (≈ 1.19 µM); in [11] (setting [24]), 3.13 µg/mL (≈ 9.56 µM); in test [12] (setting [25]), 3.13 µg/mL (≈ 9.56 µM). Moreover, the MIC in [13] is 0.2 µg/mL (≈ 0.611 µM); in test [14], not above 0.05 µg/mL; in [15], 0.78 µg/mL (≈ 2.38 µM); in [16] (setting [22]) it was 0.2 µg/mL (≈ 0.611 µM); in test [17] it was 0.2 µg/mL (≈ 0.611 µM); in [18], 1.56 µg/mL (≈ 4.77 µM). The minimal inhibitory concentration (MIC) in test [19] (20 h, read-out: MIC) was found to be 3.13 µg/mL (≈ 9.56 µM).
As to `O=C(O)c1cn(-c2ccc(O)cc2)c(-c2ccc3cccnc3c2)cc1=O`, the MIC is 12.5 µg/mL (≈ 34.9 µM) in test [1] (S68, 20 h); 1.56 µg/mL (≈ 4.35 µM) in test [2]; 0.39 µg/mL (≈ 1.09 µM) in test [3]; 0.39 µg/mL (≈ 1.09 µM) in test [4]; 6.25 µg/mL (≈ 17.4 µM) in test [5]; 0.78 µg/mL (≈ 2.18 µM) in [6]. The minimal inhibitory concentration (MIC) was found to be 1.56 µg/mL (≈ 4.35 µM) in test [7]; 6.25 µg/mL (≈ 17.4 µM) in [8] (T216, 20 h, 10^6 cells per ml); 3.13 µg/mL (≈ 8.73 µM) in test [9] (setting [23]); 25 µg/mL (≈ 69.8 µM) in test [10]; 25 µg/mL (≈ 69.8 µM) in test [11] (setting [24]); 25 µg/mL (≈ 69.8 µM) in test [12] (setting [25]). For the same compound, the MIC in test [13] is 3.13 µg/mL (≈ 8.73 µM); in test [14], not above 0.05 µg/mL; in test [15], 3.13 µg/mL (≈ 8.73 µM); in test [16], 1.56 µg/mL (≈ 4.35 µM); in [17] it was 0.39 µg/mL (≈ 1.09 µM); in [18] it was 12.5 µg/mL (≈ 34.9 µM). In test [19] (GN3379, 20 h), this compound gave an MIC of 12.5 µg/mL (≈ 34.9 µM).
